Assay: Human HepG2 cell viability assay in 384 well format
Format: toxicity, cell-based
Design: dose 125 nL, time 70.5 hour; concentration not given beside the values
Settings: HepG2 cells, read-out: Inhibition

Row | Compound | cytotoxicity at 70.5 h
1 | CC(=O)Nc1ccc(CNC2COc3c2ccc(C)c3C)cc1 (centres undefined) | 15.7%
2 | CCc1ccccc1CNC(=O)CNC(=O)C(C)(C)C | -6.65%
3 | CN(c1cccnc1N1CCCC1)S(=O)(=O)c1cccs1 | 12.7%
4 | O=C(C[S+]([O-])c1ccc(F)c(F)c1)NCc1cc(F)cc(F)c1 (centres undefined) | -2.62%
5 | COc1ccccc1[S+]([O-])CC(=O)NCc1cc(F)cc(F)c1 (centres undefined) | 2.23%
6 | CC(C)c1nc(C(=O)N(C)c2ccc(Br)cn2)cs1 | -8.09%
7 | COc1ccccc1NC(=O)CC(C)NCc1scnc1C (centres undefined) | -4.53%
8 | CC(C)c1ocnc1C(=O)N1CCC2(CC1)OCCO2 | -8.01%
9 | CCOCCN(C)C(c1cccnc1)c1ccc(F)cc1F (centres undefined) | -3.04%
10 | CCC(CCNCc1cnc(C2CCC2)s1)N1CCCC1=O (centres undefined) | 26.8%
11 | O=C(OCc1cccs1)c1cccc(C(=O)N2CCCC2)n1 | -8.17%
12 | Cc1nnc(CN2CCCC2c2ccc3c(c2)OCCO3)n1C (centres undefined) | -3.49%
13 | CC(C)C(C)N(C)Cc1nnc(-c2ccc(Br)s2)o1 (centres undefined) | -3%
14 | COCCOc1ccc(S(=O)(=O)Nc2cccnc2O)cc1C | -4.13%
15 | CC(C)(C)OC(=O)NCCC(=O)NCC(O)c1cccc(F)c1 (centres undefined) | -0.447%
16 | Cn1cnnc1CNC(=O)c1ccc(Br)cc1O | -3.54%
17 | COc1cc2nc(C)sc2cc1NC(=O)C(C)NC(N)=O (centres undefined) | 1.54%
18 | COc1cc2nc(C)sc2cc1NC(=O)CN(C)C(C)C | 4.08%
19 | Cn1ccc2c(C(=O)NCC3(C(N)=O)CCOCC3)cccc21 | 1.25%
20 | CNC(=O)NC(=O)CN(C)C(c1cccnc1)c1ccc(F)cc1F (centres undefined) | -1.87%
21 | CCCC(=O)NC(Cc1ccc(C)cc1)c1ccccn1 (centres undefined) | 2.81%
22 | Cc1ccc(CC(NC(=O)Cn2cnnn2)c2ccccn2)cc1 (centres undefined) | -1.31%
23 | CSCC(=O)NC(Cc1ccc(C)cc1)c1ccccn1 (centres undefined) | 0.833%
24 | Cc1cc(C)n(C2CCCN(C(=O)CN(C)c3cnccn3)C2)n1 (centres undefined) | -0.822%

Row | Compound | cytotoxicity at 70.5 h
25 | O=C1NCCCC1NC(=O)C1(c2cccc(Cl)c2)CCC1 (centres undefined) | -0.27%
26 | CCCNC(=O)CCC(=O)Nc1cc2sc(C)nc2cc1OC | 0.815%
27 | O=C(OCCF)c1cccc(C(=O)N2CCCC2)n1 | 26.7%
28 | Cc1ccc(CC(NC(=O)CN(C)C2CC2)c2ccccn2)cc1 (centres undefined) | -1.04%
29 | CCCn1nc(C(=O)N(C)Cc2nnc3n2CCC3)ccc1=O | -6.95%
30 | Cc1cnn(CCC(=O)NCc2ccc(N(C)C)c(C)c2)c1 | -5.29%
31 | COc1cccc(-c2cc(NCc3cscn3)n(C)n2)c1 | -7.72%
32 | CCCN1CCC(NCc2cccc(CN3CCOC(C)C3)c2)CC1 (centres undefined) | 27.7%
33 | N#CCCN(CCC#N)C(=O)c1cccc(N2CCNC2=O)c1 | -7.77%
34 | N#Cc1cccc(S(=O)(=O)NC2CCN(CC(F)(F)F)C2)c1 (centres undefined) | -15.4%
35 | Cc1cnn(C2CCCN(C(=O)c3cc(-c4ccccc4C)n[nH]3)C2)c1 (centres undefined) | 9.61%
36 | Cn1ccnc1CN1CCN(Cc2cc(-c3ccccc3)no2)CC1 | -16.7%
37 | Cn1cnnc1C1CCN(c2nc3ccccc3o2)CC1 | -5.83%
38 | COc1ccc(C2CCN(S(=O)(=O)CCCC#N)CC2)cc1 | -9.02%
39 | CCCS(=O)(=O)N1CCC(c2ccc(OC)cc2)CC1 | -5.25%
40 | CC(=O)c1sc(C(NC(=O)c2ccccc2)C2CC2)nc1C (centres undefined) | 8.83%
41 | Cc1ccccc1C(NC(=O)CCCS(C)(=O)=O)C(C)(C)C (centres undefined) | 14.3%
42 | Cc1nc(C)c(C(=O)N2CCCc3c(F)cccc32)o1 | -5.01%
43 | Cc1nc(C)c(C(=O)N2CCc3c(C)cccc32)o1 | -5.23%
44 | Cc1nc(C)c(C(=O)N2CCc3c(Cl)cccc32)o1 | 1.38%
45 | COC(=O)c1ccc(Cn2cccc(C(F)(F)F)c2=O)c(OC)c1 | 21.6%
46 | CC(C)N(CC(=O)Nc1cccc(C(=O)N(C)C)c1)C1CC1 | 7.53%
47 | COc1ccc(CCN2CCCC(n3cncn3)C2)cc1 (centres undefined) | -10.1%
48 | CC1CN(C)CCN1C(=O)c1cccn1Cc1ccncc1 (centres undefined) | -0.0265%

Row | Compound | cytotoxicity at 70.5 h
49 | CN(C)c1ncccc1NC(=O)COC1CCCC1 | -5.74%
50 | CC1CN(Cc2cccc(CNC3CCCC3)c2)CCO1 (centres undefined) | 12.8%
51 | CN(C)c1ncccc1NC(=O)COCC1CC1 | -9.25%
52 | FC(F)(F)Oc1ccc(CN2CCCC(n3cncn3)C2)cc1 (centres undefined) | -10.6%
53 | Cc1nc(CN(C)S(=O)(=O)c2ccccc2C(F)(F)F)no1 | -5.33%
54 | COc1cccnc1NC(=O)COC1CCCC1 | 24.8%
55 | Cc1noc(C(C)N2CCN(Cc3noc(C4CC4)n3)CC2)n1 (centres undefined) | -8.62%
56 | Cc1ccc(C(NC(=O)CCNC(=O)c2ccoc2)C(F)(F)F)cc1 (centres undefined) | -0.123%
57 | O=C(c1csnn1)N1CCc2ccccc21 | 2.68%
58 | Cc1ncc2c(n1)CCN(Cc1nc(Cc3ccccc3)no1)C2 | 1.16%
59 | Cc1nn(-c2ccccc2)c(C)c1CC(=O)NC1CC(=O)N(C)C1 (centres undefined) | -7.27%
60 | COc1ccc(C)cc1CN1CCN(Cc2nccn2C)CC1 | 1.89%
61 | FC(F)(F)Sc1ccccc1NCc1nc(C2CC2)no1 | 16.7%
62 | COc1ccc(C)cc1CN1CCN(Cc2nccn2C)C(C)C1 (centres undefined) | 7.41%
63 | CCC(CC)(CNC(=O)OC(C)(C)C)NC(=O)C1CCOCC1 | -5.37%
64 | O=C(NS(=O)(=O)c1cccc(C(F)(F)F)c1)c1cscn1 | -10.3%
65 | CCC(CC)(CNC(=O)OC(C)(C)C)NC(=O)C1CC1 | 16.7%
66 | COc1cc(CNC2CCCN(c3cccnn3)C2)cc2c1OCO2 (centres undefined) | -3.66%
67 | Cc1cnn(CCNC(C)C(=O)Nc2ccc(Cl)cn2)c1 (centres undefined) | -9.14%
68 | Cc1cnn(CCNCC(=O)Nc2ccc(Cl)cn2)c1 | -0.0591%
69 | Cc1cc(CNC(=O)NCC(O)c2cccc(C(F)(F)F)c2)no1 (centres undefined) | 1.91%
70 | COCCNC(=O)NC(c1ccccc1)c1ccccc1OC (centres undefined) | -3.63%
71 | CSc1ccc(NCC(=O)NCC2CC2)cc1F | -3.73%
72 | COC(=O)c1cc(NC2CCN(CC(F)(F)F)C2=O)ccc1C (centres undefined) | -1.18%

Row | Compound | cytotoxicity at 70.5 h
73 | CC(=O)N(Cc1ncc(C)o1)C1CCN(Cc2cnc(C)s2)C1 (centres undefined) | -6.82%
74 | CN(C)C(CNC(=O)NCCS(C)(=O)=O)c1ccco1 (centres undefined) | -4.23%
75 | CC(=O)N(Cc1ncc(C)o1)C1CCN(CCn2cccn2)C1 (centres undefined) | 9.96%
76 | CCN(C(=O)CN1CCn2c(C)nnc2C1)C1=CCCCC1 | -17%
77 | CCN(C(=O)CN1CCn2c(nnc2C2CC2)C1)C1=CCCCC1 | -14.8%
78 | O=C(NCc1cccnc1-n1cncn1)c1ccncc1 | -4.72%
79 | O=S(=O)(c1c(F)cccc1F)N1CCCC1c1nnc2n1CCCCC2 (centres undefined) | -12.1%
80 | O=C(CCn1ccccc1=O)Nc1ccc(C(=O)O)cc1 | -4.88%
81 | Cn1nnnc1SC1CCCN(c2cccc(F)c2)C1=O (centres undefined) | 19.4%
82 | CCc1nnc(SC2CCCN(c3cccc(F)c3)C2=O)n1C (centres undefined) | -8.7%
83 | CN1CCN(CC(NCc2cccc(O)c2)c2ccccc2)CC1 (centres undefined) | -5.45%
84 | CCn1cc(NC(=O)C2CCN(Cc3ccccc3)CC2)cn1 | 2.21%
85 | COc1ccc2oc(C(C)NC(=O)NCC(C)(C)C(N)=O)c(C)c2c1 (centres undefined) | 23.4%
86 | CCCN(C(=O)CN1CCn2c(nnc2C2CC2)C1)C1=CCCCC1 | -13.5%
87 | Cc1cc(C)n(-c2cncc(NCCC(=O)NC(C)C)n2)n1 | -10.2%
88 | Cc1cccc2nc(CNC(=O)N3CCC(OCC4CC4)CC3)cn12 | 24.4%
89 | O=C(Nc1nc(-c2ccccc2)ns1)N1CC[C@H](O)C1 | -9.25%
90 | CNC(=O)CC1CCN(C(=O)NCc2cn3c(C)cccc3n2)CC1 | -14.3%
91 | FC(F)(F)C1CCc2nnc(CNCc3cccs3)n2C1 (centres undefined) | 24.7%
92 | CCn1cc(NC(=O)C2CCN(Cc3nc(C)c(C)s3)CC2)cn1 | -5.47%
93 | O=C(c1cn(-c2cccc(Cl)c2F)nn1)N1CCCSCC1 | -13.2%
94 | Cc1cnc(CN(C)Cc2cc3c(cc2OC(F)F)OCO3)o1 | 0.766%
95 | Cc1cc(CN(C)S(=O)(=O)N2CCCC2c2ccc(C)o2)no1 (centres undefined) | -9.33%
96 | CN1CCN(CC(NCc2ccc(F)cc2)c2ccccc2)CC1 (centres undefined) | 17.2%

Row | Compound | cytotoxicity at 70.5 h
97 | Cc1cnc(CN(C)C2CCN(Cc3ccc(Cl)s3)C2)o1 (centres undefined) | -15.5%
98 | Cc1cnc(CN(C)C2CCN(Cc3sc(C)nc3C)C2)o1 (centres undefined) | 29.7%
99 | CN1CCN(CC(NCc2ccc(F)c(F)c2)c2ccccc2)CC1 (centres undefined) | 5.13%
100 | Cc1cnc(CN(C)C2CCN(Cc3cnc(C)s3)C2)o1 (centres undefined) | -8.23%
101 | N#Cc1cccc(CNC(=O)C2=NN(c3ccccc3)C(=O)CN2)c1 | 9.97%
102 | N#Cc1ccc(CNC(=O)C2=NN(c3ccccc3)C(=O)CN2)cc1 | -7.68%
103 | O=C(CNc1cccc2c1CCCC2)Nc1ccccc1Br | 2.61%
104 | Cc1nn(C)c(N(C)C)c1CNCc1cccc(Cn2cccn2)c1 | 9.51%
105 | Cc1nn(C)c(N(C)C)c1CNCc1cccc(Br)c1 | -5.91%
106 | Cc1cccn2c(=O)cc(CN3CCCC3Cn3cncn3)nc12 (centres undefined) | -5.2%
107 | CN1CC(C(=O)NC(C)(C)CNC(=O)OC(C)(C)C)CC1=O (centres undefined) | 9.2%
108 | Cc1cnn(CC2CCCN2Cc2cc(=O)n3c(C)csc3n2)c1 (centres undefined) | -4.63%
109 | Cc1nc(CN2CCN(C(=O)Cc3cccc(Cl)c3)CC2)no1 | -5.05%
110 | CC(C)Oc1ccc(C(=O)Cn2cnnc2[S+](C)[O-])cc1 (centres undefined) | -7.07%
111 | C[S+]([O-])c1nncn1CC(=O)c1ccc(OC(F)F)cc1 (centres undefined) | -2.01%
112 | O=S(=O)(c1ccc(F)cc1)N1CCN(CCCn2ccnc2)CC1 | -1.51%
113 | CCN1CCN(Cc2nc(C)no2)CC1 | 12.7%
114 | C[S+]([O-])c1nncn1CC(=O)c1cccc(C(F)(F)F)c1 (centres undefined) | -1.93%
115 | CCN1CC(C(=O)NC(C)(C)CC)CC1=O (centres undefined) | -3.27%
116 | CC(C)(C)OC(=O)NCC1CCCCN1Cc1ccccn1 (centres undefined) | 1.05%
117 | COC(C(=O)N1CCN(Cc2noc(C)n2)CC1)c1ccccc1 (centres undefined) | -3.29%
118 | Cc1cccn2c(=O)cc(CN3CCCC3Cn3cccn3)nc12 (centres undefined) | -1.74%
119 | Cc1ccc(S(=O)(=O)N2CCN(CCCn3ccnc3)CC2)cc1 | -1.75%

Source: ChEMBL document CHEMBL3507680, “University of Dundee, Gates Library screen for HepG2 cell viability”
